Laboratory results as given in US8247211B2, “Glycopeptide antibiotics” (American Cyanamid Company, priority 2001, dated 2012).
Converted amounts (≈) assume the structure as drawn.

How the values were obtained:
Assay in all cases: In vitro antibacterial evaluation: minimum inhibitory concentration (MIC), broth dilution method
Assay type in all cases: cell-based
[1] = system: Enterococcus sp.
Method: (§1) The minimum inhibitory concentration (MIC), the lowest concentration of the antibiotic which inhibits growth of the test organism, is determined by the broth dilution method using Muller-Hinton II […] (Baltimore Biological Laboratories) following the recommendations of the National Committee for Clinical Laboratory Standards [Methods for dilution antimicrobial susceptibility tests for bacteria that grow aerobically, approved standard M7-A2, National Committee for Clinical Laboratory Standards, Villanova, Pa].
(§2) An inoculum level of 5×10^5 CFU/mL, and a range of antibiotic concentrations (64-0.06 μg/mL) is used. […] The test organisms include a spectrum of Gram-positive bacteria comprised of Staphylococcus sp., Streptococcus sp. and Enterococcus sp. These organisms include recent clinical isolates that are resistant to methicillin, penicillin and/or vancomycin.

[2] = system: Escherichia coli
Method: as §1, §2

[3] = system: Staphylococcus sp.; details: broth dilution, 18 hours at 35° C.
Method: as §1, §2

[4] = system: Streptococcus sp.
Method: as §1, §2

MIC Enterococcus faecalis (ATCC 29212) ([1]; strain ATCC 29212): 8 µg/mL (≈ 5.49 µM)
MIC Enterococcus faecalis (GC 2242) ([1]; strain GC 2242): 4 µg/mL (≈ 2.74 µM)
MIC Enterococcus faecium (GC 2243) ([1]; strain GC 2243): 4 µg/mL (≈ 2.74 µM)
MIC Enterococcus faecalis (GC 2691) ([1]; strain GC 2691): 8 µg/mL (≈ 5.49 µM)
MIC Enterococcus faecalis (GC 3059) ([1]; strain GC 3059): 8 µg/mL (≈ 5.49 µM)
MIC Enterococcus faecalis (GC 4552) ([1]; strain GC 4552): 8 µg/mL (≈ 5.49 µM)
MIC Enterococcus faecalis (GC 4553) ([1]; strain GC 4553): 8 µg/mL (≈ 5.49 µM)
MIC Enterococcus faecalis (GC 4554) ([1]; strain GC 4554): 8 µg/mL (≈ 5.49 µM)
MIC Enterococcus faecium (GC 4556) ([1]; strain GC 4556): 4 µg/mL (≈ 2.74 µM)
MIC Enterococcus faecium (GC 4557) ([1]; strain GC 4557): 2 µg/mL (≈ 1.37 µM)
MIC Enterococcus avium (GC 4558) ([1]; strain GC 4558): 8 µg/mL (≈ 5.49 µM)
MIC Enterococcus faecalis (GC 6189) ([1]; strain GC 6189): 4 µg/mL (≈ 2.74 µM)
MIC Escherichia coli (ATCC 25922) ([2]; strain ATCC 25922): 64 µg/mL (≈ 43.9 µM)
MIC Escherichia coli (GC 4559) ([2]; strain GC 4559): 64 µg/mL (≈ 43.9 µM)
MIC Coagulase Negative Staphylococcus (GC 4547) ([3]; 5×10^5 CFU/mL): 1 µg/mL (≈ 0.686 µM)
MIC Coagulase Negative Staphylococcus (GC 4548) ([3]; 5×10^5 CFU/mL): 0.5 µg/mL (≈ 0.343 µM)
MIC Coagulase Negative Staphylococcus (GC 4549) ([3]; 5×10^5 CFU/mL): 0.5 µg/mL (≈ 0.343 µM)
MIC Coagulase Negative Staphylococcus (GC 4551) ([3]; 5×10^5 CFU/mL): 2 µg/mL (≈ 1.37 µM)
MIC Coagulase Negative Staphylococcus (GC 6257) ([3]; 5×10^5 CFU/mL): 0.5 µg/mL (≈ 0.343 µM)
MIC Staphylococcus aureus (ATCC 29213) ([3]; 5×10^5 CFU/mL): 2 µg/mL (≈ 1.37 µM)
MIC Staphylococcus aureus (GC 1131) ([3]; 5×10^5 CFU/mL): 2 µg/mL (≈ 1.37 µM)
MIC Staphylococcus aureus (GC 3051) ([3]; 5×10^5 CFU/mL): 2 µg/mL (≈ 1.37 µM)
MIC Staphylococcus aureus (GC 3053) ([3]; 5×10^5 CFU/mL): 4 µg/mL (≈ 2.74 µM)
MIC Staphylococcus aureus (GC 4541) ([3]; 5×10^5 CFU/mL): 2 µg/mL (≈ 1.37 µM)
MIC Staphylococcus aureus (GC 4542) ([3]; 5×10^5 CFU/mL): 2 µg/mL (≈ 1.37 µM)
MIC Staphylococcus aureus (GC 4544) ([3]; 5×10^5 CFU/mL): 2 µg/mL (≈ 1.37 µM)
MIC Staphylococcus aureus (GC 4545) ([3]; 5×10^5 CFU/mL): 2 µg/mL (≈ 1.37 µM)
MIC Staphylococcus aureus-SMITH (GC 4543) ([3]; 5×10^5 CFU/mL): 1 µg/mL (≈ 0.686 µM)
MIC Staphylococcus aureus (ATCC 29213) ([3]; strain ATCC 29213): 2 µg/mL (≈ 1.37 µM)
MIC Staphylococcus aureus (GC 1131) ([3]; strain GC 1131): 2 µg/mL (≈ 1.37 µM)
MIC Staphylococcus aureus (GC 3051) ([3]; strain GC 3051): 2 µg/mL (≈ 1.37 µM)
MIC Staphylococcus aureus (GC 3053) ([3]; strain GC 3053): 4 µg/mL (≈ 2.74 µM)
MIC Staphylococcus aureus (GC 4541) ([3]; strain GC 4541): 2 µg/mL (≈ 1.37 µM)
MIC Staphylococcus aureus (GC 4542) ([3]; strain GC 4542): 2 µg/mL (≈ 1.37 µM)
MIC Staphylococcus aureus-SMITH (GC 4543) ([3]; strain GC 4543): 1 µg/mL (≈ 0.686 µM)
MIC Staphylococcus aureus (GC 4544) ([3]; strain GC 4544): 2 µg/mL (≈ 1.37 µM)
MIC Staphylococcus aureus (GC 4545) ([3]; strain GC 4545): 2 µg/mL (≈ 1.37 µM)
MIC Coagulase Negative Staphylococcus (GC 4547) ([3]; strain GC 4547): 1 µg/mL (≈ 0.686 µM)
MIC Coagulase Negative Staphylococcus (GC 4548) ([3]; strain GC 4548): 0.5 µg/mL (≈ 0.343 µM)
MIC Coagulase Negative Staphylococcus (GC 4549) ([3]; strain GC 4549): 0.5 µg/mL (≈ 0.343 µM)
MIC Coagulase Negative Staphylococcus (GC 4551) ([3]; strain GC 4551): 2 µg/mL (≈ 1.37 µM)
MIC Coagulase Negative Staphylococcus (GC 6257) ([3]; strain GC 6257): 0.5 µg/mL (≈ 0.343 µM)
MIC Streptococcus pneumoniae (ATCC 6301) ([4]; strain ATCC 6301): <0.06 µg/mL
MIC Streptococcus pneumoniae (GC 1894) ([4]; strain GC 1894): <0.06 µg/mL
MIC Streptococcus pyogenes (GC 4563) ([4]; strain GC 4563): 0.25 µg/mL (≈ 0.171 µM)
MIC Streptococcus agalactiae (GC 4564) ([4]; strain GC 4564): 0.5 µg/mL (≈ 0.343 µM)
MIC Streptococcus pneumoniae (GC 4565) ([4]; strain GC 4565): <0.06 µg/mL
Compound: COc1cc(C2OCC3OC(OC4C(CO)OC(Oc5ccc(CC6NC(=O)C(C(C)c7ccccc7)NC(=O)CNC(=O)C(CO)NC(=O)C(C(O)C7CNC(=N)N7C7OC(CO)C(O)C(O)C7O)NC(=O)C(C(O)C7CNC(=N)N7)NC6=O)cc5)C(O)C4O)C(O)C(O)C3O2)ccc1[N+](=O)[O-] (stereo not drawn) [Example 153, Cyclo[glycyl-β-methylphenylalanyl-O-[4-O-[4,6-O-(3-methoxy-4-nitrobenzylidene)hexopyranosyl]hexopyranosyl]tyrosyl-3-(2-iminoimidazolidin-4-yl)seryl-3-(3-hexopyranosyl-2-iminoimidazolidin-4-yl)serylseryl]]
MIC Staphylococcus haemolyticus (GC 4546) ([3]; 5×10^5 CFU/mL): 1 µg/mL (≈ 0.686 µM)
MIC Staphylococcus haemolyticus (GC 4546) ([3]; strain GC 4546): 1 µg/mL (≈ 0.686 µM)
